What all share (format): in vivo
Experiment [1] has as its system MPTP-induced parkinsonism. Briefly: Antiparkinson activity in mice after 3 days administration of MPTP (locomotor activity, TruScan). The following applies: for general movement activity (number of movement acts) / movement activity / movement distance / movement speed / number of explored holes / number of rearings / time of exploratory activity: 3 min. As for the experimental part:
(§1) Parkinsonism was induced by single and multiple intraperitoneal administration of MPTP in 30 mg/kg doses in male mice of C57B1/6 strain and Wistar rats.
(§2) Antiparkinson activity of the agents was studied by the degree of hypokinesia and locomotor activity using Truscan apparatus (USA) or by mortality percentage.
Experiments were carried out in male mice of C57B1/6 strain in groups of 10 mice each. Parkinson syndrome was induced by intraperitoneal administration of 30 mg/kg dose of MPTP during 3 days. The agent ((1R,2R,6S)-1a was administered per os in 20 mg/kg and 30 mg/kg doses 24 hours after the last MPTP injection. Hypokinesia was evaluated 1 hour after the agent administration by the degree of locomotor activity using TruScan apparatus (USA) during 3 minutes.
Experiments were carried out in male mice of C57B1/6 strain in groups of 10 mice each. Parkinson syndrome was induced by intraperitoneal administration of 30 mg/kg dose of MPTP daily during 3 days. Agent (1R,2R,6S)-1b with ee 60% in 20 mg/kg dose was administered per os 24 hours after the last MPTP injection. Hypokinesia was evaluated 1.5 hours after MPTP injection by the degree of locomotor activity using TruScan apparatus (USA) during 3 minutes.

The test system of experiment [2] is MPTP-induced parkinsonism. Briefly: Antiparkinson activity in rats in 30 days administration of MPTP and the agent (locomotor activity, TruScan). The following applies: for general movement activity (number of movement acts) / movement activity / movement distance / movement speed / number of explored holes / number of rearings / time of exploratory activity: Wistar rats, MPTP 30 mg/kg (table; text 40 mg/kg) i.p. daily 30 days, day 30, 3 min. The procedure:
as §1, §2
Experiments were carried out in male Wistar rats in groups of 10 mice each. Parkinson syndrome was induced by intraperitoneal administration of 40 mg/kg dose of MPTP daily during 30 days. Saline was administered to intact control group. The agent ((1R,2R,6S)-1a in 20 mg/kg dose and levodopa (the drug of comparison) in 10 mg/kg dose were administered per os 4 hours after MPTP injection daily during 30 days. Hypokinesia was evaluated on 30 day of experiment by the degree of locomotor activity using TruScan apparatus (USA) during 3 minutes.

Experiment [3] relates to MPTP-induced parkinsonism. Briefly: Antiparkinson activity in mice after single administration of MPTP (locomotor activity, TruScan). The following applies: for general movement activity (number of movement acts) / movement activity / movement distance / movement speed / number of explored holes / number of rearings / time of exploratory activity: single MPTP 30 mg/kg i.p., 1.5 h after MPTP, 3 min; for antiparkinson activity (in words): mice, single administration of MPTP, doses 10 and/or 20 mg/kg per os as stated in the sentence. The procedure: as §1, §2
Experiments were carried out in male mice of C57B1/6 strain in groups of 10 mice each. Parkinson syndrome was induced by intraperitoneal administration of 30 mg/kg dose of MPTP, saline was administered to intact control group. The agent was administered per os 15 minutes after the reproduction of Parkinson syndrome. Hypokinesia was evaluated 1.5 hours after MPTP injection by the degree of locomotor activity using TruScan apparatus (USA) during 3 minutes.
Experiments were carried out in male mice of C57B1/6 strain in groups of 10 mice each. Parkinson syndrome was induced by intraperitoneal administration of 30 mg/kg dose of MPTP, saline was administered to intact control group. The agents in 20 mg/kg doses were administered per os 15 minutes after the reproduction of Parkinson syndrome. Hypokinesia was evaluated 1.5 hours after MPTP injection by the degree of locomotor activity using TruScan apparatus (USA) during 3 minutes.
Experiments were carried out in male mice of C57B1/6 strain in groups of 10 mice each. Parkinson syndrome was induced by intraperitoneal administration of 30 mg/kg dose of MPTP, saline was administered to intact control group. The agent in 10 mg/kg and 20 mg/kg doses were administered per os 15 minutes after the reproduction of Parkinson syndrome. Hypokinesia was evaluated 1.5 hours after MPTP injection by the degree of locomotor activity using TruScan apparatus (USA) during 3 minutes.

In experiment [4] the test system is MPTP-induced parkinsonism. Briefly: Antiparkinson activity in mice in 10 days administration of MPTP and the agent (mortality). The following applies: for Mortality, %: C57B1/6 mice, MPTP 30 mg/kg i.p. daily 10 days, day 11. The procedure:
as §2
Experiments were carried out in male mice of C57B1/6 strain in groups of 10 mice each. Parkinson syndrome was induced by intraperitoneal administration of 30 mg/kg dose of MPTP daily during 10 days. The agent ((1R,2R,6S)-1a in 20 mg/kg dose and levodopa (the drug of comparison) in 10 mg/kg dose were administered per os 4 hours after MPTP injection daily during 10 days. The effect was evaluated by the number of surviving animals on the 11 day of the experiment.

The mark [5] stands for this setting: C57B1/6 mice, MPTP 30 mg/kg i.p. 3 days, agent 20 mg/kg per os 24 h after last MPTP, 1 h after agent.
Where [6] appears, read: C57B1/6 mice, MPTP 30 mg/kg i.p. 3 days, agent 30 mg/kg per os 24 h after last MPTP, 1 h after agent.
[7] abbreviates: agent 20 mg/kg per os 4 h after MPTP daily.
[8] abbreviates: C57B1/6 mice, agent 10 mg/kg per os 15 min after.
Where [9] appears, read: C57B1/6 mice, agent 20 mg/kg per os 15 min after.
Setting [10] is: Table 5: C57B1/6 mice, agents 20 mg/kg per os 15 min after.
Where [11] appears, read: Table 7: C57B1/6 mice, MPTP 30 mg/kg i.p. daily 3 days, agent 20 mg/kg per os 24 h after last MPTP.
[12] abbreviates: Table 6: C57B1/6 mice, agent 10 mg/kg per os 15 min after.
The mark [13] stands for this setting: Table 6: C57B1/6 mice, agent 20 mg/kg per os 15 min after.
[14] abbreviates: L-DOPA 10 mg/kg per os 4 h after MPTP daily.

5 molecules from patent US8809391B2, “Agent for treating Parkinson's disease” (OOO “Tomskaya Farmatsevticheskaya Fabrika”, priority 2009, dated 2014) can be followed below.

As to `C=C(C)[C@@H]1CC=C(C)[C@@H](O)[C@@H]1O` [(1R,2R,6S)-1a with ee 60%, (1R,2R,6S)-3-methyl-6-(1-methylethenyl)cyclohex-3-ene-1,2-diol], in experiment [1] (setting [5]), the “general movement activity (number of movement acts)” value (shortened to “general movement activity”) stood at 81.9 ± 3.7, the movement activity turned out to be 70.1 ± 3.9 s, the movement distance stood at 351.8 ± 26.4 cm and the movement speed came out at 2.9 ± 0.2 cm/s. For the same molecule, in experiment [1] (setting [5]), the “number of explored holes” value is recorded as 8.8 ± 1.0, the number of rearings is on record as 11.1 ± 0.9 and the “time of exploratory activity” value was 3.9 ± 0.5 s. Also, in experiment [1] (setting [6]), the “general movement activity” value was 81.8 ± 2.6, the movement activity amounted to 66.8 ± 3.7 s, the movement distance was 335.5 ± 28.9 cm and the movement speed came out at 2.7 ± 0.2 cm/s. For the same molecule, in experiment [1] (setting [6]), the “number of explored holes” value was determined as 3.8 ± 0.6, the number of rearings was 13 ± 1.7 and the “time of exploratory activity” value is 1.6 ± 0.3 s. Moreover, in experiment [2] (setting [7]), the “general movement activity” value is 81.89 ± 5.5, the movement activity stood at 62.56 ± 5.2 s, the movement distance amounted to 305.58 ± 30.38 cm and the movement speed amounted to 2.5 ± 0.25 cm/s. Besides, in experiment [2] (setting [7]), the “number of explored holes” value worked out at 4.3 ± 0.73, the number of rearings is 10.67 ± 1.18 and the “time of exploratory activity” value came out at 1.75 ± 0.5 s. Further, the “antiparkinson activity (in words)” value in experiment [2] (rats, 20 mg/kg, 30 days administration of MPTP and the agent) was “remarkable antiparkinson activity”. In addition, the “comparison with levodopa (in words)” value in experiment [2] (rats, 30 days, agent 20 mg/kg vs levodopa 10 mg/kg) is recorded as “as good as the drug of comparison levodopa”. Moreover, in experiment [3] (setting [8]), the “general movement activity” value is listed as 77.2 ± 5, the movement activity worked out at 57 ± 5.3 s, the movement distance came out at 257.3 ± 29.5 cm and the movement speed was 2.1 ± 0.25 cm/s. Moreover, in experiment [3] (setting [8]), the “number of explored holes” value is listed as 7.7 ± 1.07, the number of rearings is 5.8 ± 0.6 and the “time of exploratory activity” value stood at 3.6 ± 0.7 s. In experiment [3] (setting [9]), the “general movement activity” value amounted to 80.7 ± 4, the movement activity turned out to be 59 ± 4 s, the movement distance was 276.5 ± 24 cm and the movement speed is 2.25 ± 0.2 cm/s. In experiment [3] (setting [9]), the “number of explored holes” value is 7.6 ± 1.7, the number of rearings is on record as 8.5 ± 2 and the “time of exploratory activity” value turned out to be 4.4 ± 1 s. Moreover, in experiment [3], the “antiparkinson activity (in words)” value is recorded as “remarkable antiparkinson activity”. Moreover, the “Mortality, %” value in experiment [4] (setting [7]) is listed as 10%. In addition, in experiment [4] (mice, 20 mg/kg, 10 days of administration of the agents and MPTP), the “effect on mortality (in words)” value is “considerably reduces mortality”. Besides, the “comparison with levodopa (in words)” value in experiment [4] (mice, mortality test, agent 20 mg/kg vs levodopa 10 mg/kg) was “as good as the drug of comparison levodopa”.
On to `C=C(C)[C@@H]1CC=C(C)[C@@H](O)[C@@H]1O` [(1R,2R,6S)-1a with ee 94%, (1R,2R,6S)-3-methyl-6-(1-methylethenyl)cyclohex-3-ene-1,2-diol], for which, in experiment [3] (setting [10]), the “general movement activity” value amounted to 78.6 ± 5.0, the movement activity was 64.0 ± 5.5 s, the movement distance came to 332.6 ± 39.6 cm and the movement speed was 2.7 ± 0.3 cm/s. Further, in experiment [3] (setting [10]), the “number of explored holes” value stood at 3.2 ± 0.9, the number of rearings was 13.1 ± 2.5 and the “time of exploratory activity” value was 1.5 ± 0.4 s.
As for `C=C(C)[C@@H]1CC=C(C)[C@@H](O)[C@@H]1O` [(1R,2R,6S)-1b with ee 60%, diacetate (1R,2R,6S)-3-methyl-6-(1-methylethenyl)cyclohex-3-ene-1,2-diol], in experiment [1] (setting [11]), the “general movement activity” value was found to be 83.9 ± 3.5, the movement activity is 64.1 ± 5.0 s, the movement distance was determined as 310.0 ± 35.6 cm and the movement speed is 2.5 ± 0.3 cm/s. Also, in experiment [1] (setting [11]), the “number of explored holes” value stood at 6.0 ± 1.0, the number of rearings is 10.4 ± 1.5 and the “time of exploratory activity” value was 3.2 ± 0.8 s. The “antiparkinson activity (in words)” value in experiment [1] (mice, 3 days administration of MPTP, doses 20 (and 30) mg/kg per os as stated in the sentence) is “remarkable antiparkinson activity”. Moreover, in experiment [3] (setting [12]), the “general movement activity” value is recorded as 69.9 ± 6.7, the movement activity amounted to 51.5 ± 7.5 s, the movement distance is 244.4 ± 4.5 cm and the movement speed amounted to 2.0 ± 0.4 cm/s. In addition, in experiment [3] (setting [12]), the “number of explored holes” value is listed as 3.4 ± 1.1, the number of rearings was 6.4 ± 1.6 and the “time of exploratory activity” value worked out at 1.3 ± 0.5 s. In experiment [3] (setting [13]), the “general movement activity” value was found to be 84.8 ± 4.4, the movement activity worked out at 58.8 ± 4.5 s, the movement speed was 1.9 ± 0.4 cm/s and the “number of explored holes” value is 3.2 ± 0.5. In experiment [3] (setting [13]), the number of rearings was found to be 10.8 ± 1.7 and the “time of exploratory activity” value amounted to 2.0 ± 0.3 s.
Turning to `C=C(C)[C@H]1CC=C(C)[C@H](O)[C@H]1O` [(1S,2S,6R)-1a with ee 97%, (1S,2S,6R)-3-methyl-6-(1-methylethenyl)cyclohex-3-ene-1,2-diol], in experiment [3] (setting [10]), the “general movement activity” value turned out to be 57.9 ± 6.0, the movement activity is 34.9 ± 4.3 s, the movement distance was 147.8 ± 20.3 cm and the movement speed turned out to be 1.13 ± 0.15 cm/s. For the same molecule, in experiment [3] (setting [10]), the “number of explored holes” value is 2.5 ± 0.9, the number of rearings is on record as 4.4 ± 1.4 and the “time of exploratory activity” value was determined as 1.2 ± 0.6 s. In addition, in experiment [3], the “antiparkinson activity (in words)” value is “remarkable antiparkinson activity”.
Turning to `N[C@@H](Cc1ccc(O)c(O)c1)C(=O)O` [L-DOPA, reference compound], in experiment [2] (setting [14]), the “general movement activity” value stood at 86 ± 3.86, the movement activity is 65.09 ± 2.92 s, the movement distance worked out at 316.77 ± 16.2 cm and the movement speed amounted to 2.57 ± 0.13 cm/s. In addition, in experiment [2] (setting [14]), the “number of explored holes” value was 4.63 ± 0.56, the number of rearings came to 9.63 ± 1.16 and the “time of exploratory activity” value came out at 1.66 ± 0.25 s. Moreover, in experiment [4] (setting [14]), the “Mortality, %” value is listed as 20%.
